These results are taken from patent US20240174641A1, “HETEROCYCLIC COMPOUNDS CAPABLE OF […]” (Boehringer Ingelheim International GmbH, priority 2022, published 2024).

Each structure is given as a SMILES string.

In assay [1] the target is STING (Canis lupus familiaris, UniProt A0A8I3MH52). Kind of assay: Dog whole blood (dWB) assay, IFNb secretion by ELISA. Format: cell-based. To be noted: canine Interferon-beta (IFNb) ELISA, 4 h incubation at 37° C. As to the method: For the detection of STING activation in physiological environment dog whole blood (dWB) was stimulated by the cyclic dinucleotide cGAMP or a test compound. Pathway activity was monitored by measuring the IFNb production.
Compounds were delivered as 10 mM DMSO solution, diluted and transferred by using an Echo acoustic dispenser to the 384 well assay plate (Greiner #781182), pre-filled with 10 μl 1×HBSS in each well (10×HBSS (+Ca/+Mg), #14065-049, Gibco). Typically, 8 concentrations were used with the highest concentration at 10 μM in the final assay volume followed by approximately 1:4 dilution steps. DMSO concentration was set to 0.1% in the final assay volume. The 384-well assay plate contained 20 test compounds and DMSO in control and cGAMP standard wells. The dog whole blood was collected as Na-Citrate blood (e.g., 3.8% in Monovettes from Sarstedt) and kept at 4° C. overnight until use in the assay. 80 μl of the whole blood samples were transferred to each well of the 384-well assay plates filled with compound/1×HBSS. Blood plates were kept at room temperature for 60 minutes and continuous shaking with 450 rpm, covered with the lid, but not sealed. A 10×cGAMP assay solution was diluted from a 2 mM stock solution in 1×HBSS immediately before use at room temperature. 10 μl of the 10×cGAMP/HBSS were added to the high control wells, whereas HBSS only was added to all compound and low control wells. After covering assay plates with the lid, blood plates were kept for a 4 h incubation at 37° C. in the incubator, without shaking. For the detection of IFNb in dog plasma the ELISA Kit for Canine Interferon Beta (Biotrend #SEA222Ca) was used. Whole blood assay plates were centrifuged at 1000 g for 10 minutes at 8° C. […] was transferred with a 96 well pipetting robotics from the 384 well whole blood plate to the corresponding 96 well ELISA plate, pre-filled with 60 μl assay diluent in each well. Plates were sealed with microplate seals and kept at 4° C. overnight again. ELISA plates were brought to room temperature, followed by a 1 h incubation at 37° C. in the incubator. Detection Reagent A working solution was prepared by diluting Detection Reagent A 1:100 in Assay Reagent A. Liquid was then removed from the 96 well ELISA plate to add 100 μL Detection Reagent A working solution to each well. ELISA plates were covered with the plate sealer and incubated for 1 hour at 37° C. in the incubator. The 1× Wash buffer was prepared by diluting the 30× Wash Buffer Concentrate in H2O. Detection Reagent B working solution was prepared by diluting Detection Reagent B 1:100 in Assay Reagent B. The ELISA plates were washed three times with 350 μl wash buffer and afterwards inverted and blotted against absorbent paper to remove any liquid. 100 μL of Detection Reagent B working solution was added to each well of the ELISA plates, which are then covered with the plate sealer and incubated for 30 minutes at 37° C. in the incubator. After incubation the ELISA assay plates were washed five times with 350 μl wash buffer and were again inverted and blotted against absorbent paper to remove any remaining liquid. 90 μL of TMB Substrate was added to each well of the ELISA plates, which were then covered with the plate sealer and incubated for 15 minutes at 37° C. in the incubator. The reaction was stopped by adding 50 μL stop solution and absorbance was measured at 450 nm immediately.
For data evaluation and calculation, % control calculation of each well was based on the mean of high (cGAMP stimulated control) and mean of low (unstimulated control) controls by using the following standard 4 parameter logistic regression formula:
[y=(a−d)/(1+(x/c)^b)+d] • a=low value, • d=high value, • x=conc M, • c=EC50 M, • b=slope. Dog Liver Microsome (dLM) Assay
A general note: An ELISA detects its analyte on a solid surface through an enzyme-linked reagent.

The subject of assay [2] is dog STING (dSTING). The assay is described as follows: Dog differential scanning fluorimetry (DSF) assay, thermal shift of dog STING protein. Format: binding. The following applies: DSF (dDSF); 100 μM compound, 3 μM dog STING protein; Tm with ligand minus Tm of protein alone. Summed up: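 Dog STING residues 149–375, His-tag removed by TEV, tested at 3 μM with 100 μM compound, 5× SYPRO Orange and 2% DMSO in 20 mM Tris, 150 mM NaCl, pH 7.5. Heated 15–95 °C in 0.5 °C steps. Tm from Boltzmann fit, duplicates averaged; ΔTm relative to protein alone.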
(In DSF a fluorescence change marks the thermal transition of the protein.)

Chain of STING (A0A8I3MH52 1-374): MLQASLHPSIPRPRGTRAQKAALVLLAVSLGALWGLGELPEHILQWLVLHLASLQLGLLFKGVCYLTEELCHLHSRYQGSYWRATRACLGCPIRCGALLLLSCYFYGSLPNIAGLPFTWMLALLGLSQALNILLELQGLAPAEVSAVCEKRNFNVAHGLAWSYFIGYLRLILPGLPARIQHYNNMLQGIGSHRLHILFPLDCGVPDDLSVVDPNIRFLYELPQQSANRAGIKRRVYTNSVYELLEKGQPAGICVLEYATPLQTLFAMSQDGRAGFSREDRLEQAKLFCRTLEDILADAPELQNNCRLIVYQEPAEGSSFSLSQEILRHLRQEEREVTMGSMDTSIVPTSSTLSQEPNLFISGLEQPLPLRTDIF

`Cc1cccc2c(-c3c(F)ccc4nn(C)c(F)c34)nn(-c3ccc(N4C[C@@H]5[C@H](C4)[C@H]5C(=O)O)nc3)c12` [Example 74, (1R,5S,6R)-3-(5-{3″,5″-difluoro-2″,7-dimethyl-1H,2″H-[3,4″-biindazol]-1-yl}pyridin-2-yl)-3-azabicyclo[3.1.0]hexane-6-carboxylic acid] showed an EC50 in assay [1] of 160 nM. Moreover, the “Delta TM” value in assay [2] came to 36.4 °C.
Compound `Cc1cccc2c(-c3ccc(F)c4nn(C)cc34)nn(-c3ccc(N4CCC(C(=O)O)CC4)nc3)c12` [Example 4, 1-(5-{7″-Fluoro-2″,7-dimethyl-1H,2″H-[3,4″-biindazol]-1-yl}pyridin-2-yl)piperidine-4-carboxylic acid] came in with an EC50 in assay [1] of 757 nM. For the same compound, in assay [2], the “Delta TM” value came to 31.0 °C.
In assay [1], `CC(=O)N1CC2CCC1CN2c1ccc(-n2nc(-c3cccc4nn(C)c(F)c34)c3cccc(C)c32)cn1` (stereo not shown) [Example 23, 1-[5-(5-{3″-fluoro-2″,7-dimethyl-1H,2″H-[3,4″-biindazol]-1-yl}pyridin-2-yl)-2,5-diazabicyclo[2.2.2]octan-2-yl]ethan-1-one] came in with a 50% effective concentration (EC50) of 219 nM. The “Delta TM” value in assay [2] worked out at 29.6 °C.
`Cc1cccc2c(-c3c(F)cc(F)c4nn(C)cc34)nn(-c3ccc(N4C[C@@H]5C[C@H]4C[C@H]5C(=O)O)nc3)c12` (single isomer, unassigned) [Example 47-1]: the EC50 in assay [1] came out at 628 nM. Besides, the “Delta TM” value in assay [2] amounted to 34.0 °C.
As to `Cc1c(F)ccc2c(-c3c(F)cc(F)c4nn(C)cc34)nn(-c3ccc(N4CCC(C(=O)O)CC4)nc3)c12` [Example 70, 1-(5-{5″,6,7″-trifluoro-2″,7-dimethyl-1H,2″H-[3,4″-biindazol]-1-yl}pyridin-2-yl)piperidine-4-carboxylic acid], in assay [1], the midpoint of the response, the EC50, lay at 296 nM. Besides, the “Delta TM” value in assay [2] was 34.5 °C.
In assay [1], `Cc1cccc2c(-c3c(F)cc(F)c4nn(C)cc34)nn(-c3ccc(N4C[C@H]5C[C@@H]4C[C@@H]5C(=O)O)nc3)c12` (single isomer, unassigned) [Example 47-2] came in with an EC50 of 200 nM. Moreover, the “Delta TM” value in assay [2] is 35.5 °C.
`Cc1c(F)ccc2c(-c3cccc4nn(C)c(F)c34)nn(-c3ccc(N4CCC(C(=O)O)CC4)nc3)c12` [Example 60, 1-(5-{3″,6-difluoro-2″,7-dimethyl-1H,2″H-[3,4″-biindazol]-1-yl}pyridin-2-yl)piperidine-4-carboxylic acid]: the EC50 in assay [1] turned out to be 195 nM. Also, the “Delta TM” value in assay [2] is 34.5 °C.
For `CC(=O)N1CCN(c2ccc(-n3nc(-c4cccc5nn(C)c(F)c45)c4cccc(C)c43)cn2)CC1` [Example 8, 1-[4-(5-{3″-Fluoro-2″,7-dimethyl-1H,2″H-[3,4″-biindazol]-1-yl}pyridin-2-yl)piperazin-1-yl]ethan-1-one] the same measures were 168 nM and 32.5 °C.
Take `Cc1cccc2c(-c3c(Cl)ccc4nn(C)cc34)nn(-c3ccc(N4C[C@@H]5[C@H](C4)[C@H]5C(=O)O)nc3)c12` [Example 77, (1R,5S,6S)-3-(5-{5″-chloro-2″,7-dimethyl-1H,2″H-[3,4″-biindazol]-1-yl}pyridin-2-yl)-3-azabicyclo[3.1.0]hexane-6-carboxylic acid]: the EC50 in assay [1] came out at 1090 nM. Also, the “Delta TM” value in assay [2] is 27.4 °C.
Compound `CC(=O)N1CCN(c2ccc(-n3nc(-c4c(F)cc(F)c5nn(C)cc45)c4cccc(C)c43)cn2)CC1` [Example 49, 1-[4-(5-{5″,7″-difluoro-2″,7-dimethyl-1H,2″H-[3,4″-biindazol]-1-yl}pyridin-2-yl)piperazin-1-yl]ethan-1-one] registered an EC50 in assay [1] of 416 nM. Also, the “Delta TM” value in assay [2] was 30.5 °C.
As for `Cc1cccc2c(-c3cccc4nn(C)c(F)c34)nn(-c3ccc(N4C[C@@H]5C[C@H]4C[C@H]5C(=O)O)nc3)c12` [Example 73-2, (1S,4R,5R)-2-(5-{3″-fluoro-2″,7-dimethyl-1H,2″H-[3,4″-biindazol]-1-yl}pyridin-2-yl)-2-azabicyclo[2.2.1]heptane-5-carboxylic acid], the EC50 in assay [1] was determined as 232 nM. Also, the “Delta TM” value in assay [2] came out at 33.3 °C.
The matching figures for `Cc1c(F)ccc2c(-c3c(F)ccc4nn(C)cc34)nn(-c3ccc(N4CCC(C(=O)O)CC4)nc3)c12` [Example 65, 1-(5-{5″,6-difluoro-2″,7-dimethyl-1H,2″H-[3,4″-biindazol]-1-yl}pyridin-2-yl)piperidine-4-carboxylic acid]: 330 nM and 36.5 °C.
With `CC(=O)N1CCN(c2ccc(-n3nc(-c4cccc5nn(C)c(F)c45)c4ccc(F)c(C)c43)cn2)CC1` [Example 66, 1-[4-(5-{5″,6-difluoro-2″,7-dimethyl-1H,2″H-[3,4″-biindazol]-1-yl}pyridin-2-yl)piperazin-1-yl]ethan-1-one], the EC50 in assay [1] was 179 nM. The “Delta TM” value in assay [2] turned out to be 25.8 °C.
In the case of `Cc1cc(F)cc2c(-c3ccc(F)c4nn(C)cc34)nn(-c3ccc(N4C[C@@H]5[C@H](C4)[C@H]5C(=O)O)nc3)c12` [Example 12, (1R,5S,6R)-3-(5-{5,7″-Difluoro-2″,7-dimethyl-1H,2″H-[3,4″-biindazol]-1-yl}pyridin-2-yl)-3-azabicyclo[3.1.0]hexane-6-carboxylic acid], the EC50 in assay [1] turned out to be 609 nM. Also, the “Delta TM” value in assay [2] was 21.7 °C.
For `Cc1cccc2c(-c3c(F)cc(F)c4nn(C)cc34)nn(-c3ccc(N4C[C@@H]5[C@H](C4)[C@H]5C(=O)O)nc3)c12` [Example 7, (1R,5S,6S)-3-(5-{5″,7″-Difluoro-2″,7-dimethyl-1H,2″H-[3,4″-biindazol]-1-yl}pyridin-2-yl)-3-zabicyclo[3.1.0]hexane-6-carboxylic acid], a half-maximal response in assay [1] (EC50) required 250 nM. The “Delta TM” value in assay [2] amounted to 35.5 °C.
Compound `CC(=O)N1CCN(c2ccc(-n3nc(-c4c(F)ccc5nn(C)cc45)c4cccc(C)c43)cn2)CC1` [Example 29, 1-[4-(5-{5″-fluoro-2″,7-dimethyl-1H,2″H-[3,4″-biindazol]-1-yl}pyridin-2-yl)piperazin-1-yl]ethan-1-one] registered an EC50 in assay [1] of 140 nM. In assay [2], the “Delta TM” value was determined as 32.0 °C.
`Cc1cccc2c(-c3c(F)ccc4nn(C)cc34)nn(-c3ccc(N4CC5CCC4CC5C(=O)O)nc3)c12` (single isomer, unassigned) [Example 28-4] showed a concentration giving a half-maximal response (EC50) in assay [1] of 206 nM. In addition, the “Delta TM” value in assay [2] was 37.9 °C.
With `CC(=O)N1C[C@H]2C[C@@H]1CN2c1ccc(-n2nc(-c3c(F)ccc4nn(C)cc34)c3cccc(C)c32)cn1` [Example 31, 1-[(1R,4R)-5-(5-{5″-fluoro-2″,7-dimethyl-1H,2″H-[3,4″-biindazol]-1-yl}pyridin-2-yl)-2,5-diazabicyclo[2.2.1]heptan-2-yl]ethan-1-one], the EC50 in assay [1] turned out to be 101 nM. For the same compound, the “Delta TM” value in assay [2] was found to be 30.5 °C.
For `Cc1cccc2c(-c3ccc(F)c4nn(C)cc34)nn(-c3ccc(N4C[C@@H]5[C@H](C4)[C@H]5C(=O)O)nc3)c12` [Example 3, (1R,5S,6R)-3-(5-{7″-Fluoro-2″,7-dimethyl-1H,2″H-[3,4″-biindazol]-1-yl}pyridin-2-yl)-3-azabicyclo[3.1.0]hexane-6-carboxylic acid] the same measures were 730 nM and 32.2 °C.
On to `Cc1cccc2c(-c3cccc4nn(C)c(F)c34)nn(-c3ccc(N4CCN(C=O)CC4)nc3)c12` [Example 9, 4-(5-{3″-Fluoro-2″,7-dimethyl-1H,2″H-[3,4″-biindazol]-1-yl}pyridin-2-yl)piperazine-1-carbaldehyde], for which, in assay [1], the half-maximal effective concentration (EC50) was 192 nM. The “Delta TM” value in assay [2] was 28.5 °C.

A word on the EC50: it is the concentration at which the effect is half-maximal. High values mean a need for much substance, low ones an effect from little substance.
